# Laboratory results reported in patent US12410153B2, “Compounds, compositions and methods” (Avalo Therapeutics, Inc., priority 2014, dated 2025).
# Like-named read-outs stand apart in the source and are kept apart here.
# Legend:
# [1] = Single-dose pharmacokinetics in rats (oral and IV); format: in vivo; settings: male, Sprague-Dawley, rat, plasma
# Procedure: Male Sprague-Dawley rats (N=8; N=4 oral and N=4 intravenous [IV]) weighing approximately 250-280 g and male rhesus monkeys (N=4, crossover) weighing 6.0-8.8 kg were used for the PK studies. In rats, the IV dose of crystalline Form II of Compound (I) at 2 mg/kg (0.4 mL/kg) was administered as a bolus and the oral dose was administered by gavage at 15 mg/kg (5 mL/kg). In monkeys, the IV dose of Form II at 2 mg/kg (0.1 mL/kg) was administered as a slow bolus and the oral dose was administered via nasogastric tube at 15 mg/kg (5 mL/kg). Blood samples were serially collected pre-dose, and at 0.083 (IV only), 0.25, 0.50, 1, 2, 4, 6, 8, 10, 24, 48, 72, and 96 h post-dose. The concentrations of Form II in rat and monkey plasma were determined by LC/MS/MS analysis in the positive ion mode using a heated nebulizer interface. The lower limit of quantitation was 2.5 ng/mL (approximately 0.00697 μM).
# [2] = Respiratory effects in anesthetized dogs, 5-min IV infusion; format: in vivo, dog; settings: dog, plasma, 3 mg/kg
# Procedure: (§1) Respiratory effects were investigated in rats and dogs. […] Mean Form II plasma concentration was approximately 30 μM (10600 ng/mL) at the end of infusion and approximately 4 μM (1250 ng/mL) at 60 min post-infusion.
# dogs = assay: as above; format: in vivo, dog; settings: 3 mg/kg, monitored 60 min
# Procedure: as §1
# [3] = target: T1, NMDA-GluN2B receptors, rat whole brain homogenate (Rattus norvegicus, UniProt P35439+Q00960); assay: Radioligand binding, rat whole brain homogenate; settings: geometric mean
# T1 construct: performed using whole brain homogenate (rat); from tissue; host or cells: rat whole brain homogenate
# Procedure: Radioligand binding assays were performed at room temperature (or 37° C.) in 96-well microtiter plates with a final assay volume of […] in 20 mM HEPES buffer (pH 7.4) containing 150 mM NaCl. […] Nonspecific binding was assessed using N-(3-chlorobenzyl)-4-iodobenzimidamide (final concentration, 10 μM), and total binding was measured by addition of DMSO (final concentration, 2%). L(tk−) cell membranes expressing human GluN1a/GluN2B receptors (final concentration, 40 pM) and [^3H]-[(E)-N1-(2-methoxybenzyl)-cinnamamidine] (final concentration, 1 nM) were added to all wells of the microtiter plate. After 3 h (24 h or 48 h) of incubation at room temperature (or 37° C.), samples were filtered through Packard GF/B filters (presoaked in 0.05% polyethylenimine [PEI; Sigma P-3143]) and washed 10 times with 1 mL of cold 20 mM HEPES buffer per wash. After vacuum drying of the filter plates, 50 μL of Packard Microscint-20 was added and the bound radioactivity determined in a Packard TopCount.
# Analogous binding experiments, to those described above for the cloned human receptor expressed in L(tk−) cells, were also performed using whole brain homogenate (rat), frontal cortex homogenate (dog and rhesus monkey), and temporal cortex homogenate (human).
# Sprague-Dawley rats = assay: Acute depression model, forced swim test; format: in vivo, rat; settings: for RO: corresponding to plasma level; for ED50: Rattus norvegicus
# Procedure: (§2) Young, adult, male Sprague-Dawley rats were randomly assigned across the treatment groups and were administered vehicle (0.5% MC/0.02% SLS), the reference compound desipramine (20 mg/kg; a tricyclic antidepressant; Sigma, Lot #078K1326) dissolved in sterile water, or crystalline Form II of Compound (I) (0.1, 0.3, 1, 3, 10, and 30 mg/kg) suspended in 0.5% MC/0.02% SLS, twice on Day 1 (after habituation; ˜24 h prior to test, and prior to dark cycle) and once on Day 2 (30 min pre-test for desipramine and 45 min pre-test for Form II and vehicle).
# (§3) Each Forced Swim chamber was constructed of clear acrylic (height, 40 cm; diameter, 20.3 cm). Rats were subjected to a pre-dose swim test of one 15-min session in cylinders containing water at 23° C.±1° C., followed approximately 24 h later by the experimental 5-min session. The water level was 16 cm deep during habituation and 30 cm deep during the test. Immobility, climbing, and swimming behaviors were recorded every 5 s for a total of 60 counts per subject. When an animal was unable to maintain a posture with its nose above water, it was immediately removed from the water and eliminated from the study. Blood was collected at the completion of swim test procedures and plasma was analyzed for Form II concentrations.
# [4] = Acute depression model, forced swim test; format: in vivo, rat; settings: male, Sprague-Dawley, rat, plasma, read-out: plasma level at time of sampling
# Procedure: as §2, §3
# T1 sequence (Q00960 27-1482, other chains not shown): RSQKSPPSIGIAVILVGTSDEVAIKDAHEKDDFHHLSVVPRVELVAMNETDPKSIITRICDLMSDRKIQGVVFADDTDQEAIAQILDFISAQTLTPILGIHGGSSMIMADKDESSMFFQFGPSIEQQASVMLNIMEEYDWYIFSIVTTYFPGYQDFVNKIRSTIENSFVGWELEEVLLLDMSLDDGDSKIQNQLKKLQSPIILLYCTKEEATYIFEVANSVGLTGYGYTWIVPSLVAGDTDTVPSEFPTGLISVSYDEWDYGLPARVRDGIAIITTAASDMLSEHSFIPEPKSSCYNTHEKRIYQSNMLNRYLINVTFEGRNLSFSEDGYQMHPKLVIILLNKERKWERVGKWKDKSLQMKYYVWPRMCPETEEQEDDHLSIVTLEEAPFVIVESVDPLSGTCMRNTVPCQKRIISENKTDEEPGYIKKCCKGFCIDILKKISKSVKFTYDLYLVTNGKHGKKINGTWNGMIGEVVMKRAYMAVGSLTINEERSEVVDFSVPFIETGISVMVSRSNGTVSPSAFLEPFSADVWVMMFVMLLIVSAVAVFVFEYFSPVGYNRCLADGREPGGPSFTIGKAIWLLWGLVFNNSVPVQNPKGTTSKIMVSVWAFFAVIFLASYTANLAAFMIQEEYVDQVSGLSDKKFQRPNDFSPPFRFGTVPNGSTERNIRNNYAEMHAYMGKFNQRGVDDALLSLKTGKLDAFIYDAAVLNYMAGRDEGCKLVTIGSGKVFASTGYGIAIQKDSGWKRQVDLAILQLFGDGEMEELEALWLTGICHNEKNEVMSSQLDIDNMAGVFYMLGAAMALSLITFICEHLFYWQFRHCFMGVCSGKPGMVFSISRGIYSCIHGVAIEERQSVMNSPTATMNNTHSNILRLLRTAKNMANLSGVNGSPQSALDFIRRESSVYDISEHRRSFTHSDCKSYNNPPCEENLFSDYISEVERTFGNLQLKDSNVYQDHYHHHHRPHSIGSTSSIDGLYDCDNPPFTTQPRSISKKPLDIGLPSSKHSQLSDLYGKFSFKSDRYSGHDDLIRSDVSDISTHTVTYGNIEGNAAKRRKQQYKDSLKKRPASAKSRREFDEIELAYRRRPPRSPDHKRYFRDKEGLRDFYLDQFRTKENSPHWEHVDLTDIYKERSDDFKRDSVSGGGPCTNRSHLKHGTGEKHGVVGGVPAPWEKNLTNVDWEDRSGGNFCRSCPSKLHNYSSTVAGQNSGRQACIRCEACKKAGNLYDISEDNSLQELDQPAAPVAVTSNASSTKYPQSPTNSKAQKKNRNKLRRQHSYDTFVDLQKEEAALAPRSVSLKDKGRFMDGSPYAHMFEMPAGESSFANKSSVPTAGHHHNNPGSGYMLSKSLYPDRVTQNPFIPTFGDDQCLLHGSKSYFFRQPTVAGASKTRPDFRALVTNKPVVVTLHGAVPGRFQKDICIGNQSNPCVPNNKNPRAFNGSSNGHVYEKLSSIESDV
smiles,measurement,setting,value
"Cc1ccc(COC(=O)N2CC[C@H](CNc3ncccn3)[C@H](F)C2)cc1 [Form II, 4-methylbenzyl (3S, 4R)-3-fluoro-4-[(pyrimidin-2-ylamino)methyl] piperidine-1-carboxylate]",bioavailability,"[1]; 15 mg/kg, dose-normalized AUC0-∞ after IV and PO, non-crossover",60%
same,AUC(0-inf),"[1]; IV 2 mg/kg, mean (S.D.)",3.31 µM·h
same,half-life,"[1]; IV 2 mg/kg, mean (S.D.)",1.7 h
same,clearance,"[1]; IV 2 mg/kg, mean (S.D.), read-out: CLp",28.4 mL/min/kg
same,Vd,"[1]; IV 2 mg/kg, mean (S.D.), read-out: Vdss",3.1 L/kg
same,AUC(0-inf),"[1]; PO 15 mg/kg, mean (S.D.)",14.9 µM·h
same,Cmax,"[1]; PO 15 mg/kg, mean (S.D.)",5.9 µM
same,concentration at 60 min,[2]; read-out: mean plasma concentration at 60 min post-infusion,~4 µM
same,concentration at 5 min,[2]; read-out: mean plasma concentration at the end of infusion,~30 µM
same,"respiratory parameters and blood pH, pCO2, pO2",dogs,did not affect
same,Ki,[3]; 37° C.,14 nM
same,Ki,[3]; room temp.,3.3 nM
same,RO,Sprague-Dawley rats; 0.1 mg/kg,approximately 5%
same,RO,Sprague-Dawley rats; 0.3 mg/kg,~29%
same,RO,Sprague-Dawley rats; 1 mg/kg,~56%
same,RO,Sprague-Dawley rats; 3 mg/kg,~83%
same,RO,Sprague-Dawley rats; 10 mg/kg,~94%
same,RO,Sprague-Dawley rats; 30 mg/kg,~98%
same,climbing behavior,"Sprague-Dawley rats; 1, 3, 10, and 30 mg/kg vs vehicle",did not affect climbing behavior except at the dose of 3 mg/kg
same,immobility frequency,"Sprague-Dawley rats; 1, 3, 10, and 30 mg/kg vs vehicle, P<0.001",significantly decreased
same,swimming behavior,"Sprague-Dawley rats; 1, 3, 10, and 30 mg/kg vs vehicle, P<0.01 (P<0.05 for 10 mg/kg)",significantly increased
same,ED50,Sprague-Dawley rats; read-out: ED50 for decrease in immobility,~0.7 mg/kg
same,ED50,Sprague-Dawley rats; read-out: ED50 for increase in frequency of swimming,~0.3 mg/kg
same,RO corresponding to ED50 for immobility,"Sprague-Dawley rats; rat, in vivo",~50%
same,RO corresponding to ED50 for swimming,"Sprague-Dawley rats; rat, in vivo",~30%
same,concentration at 50 min,[4]; 0.1 mg/kg,~0.015 µM
same,concentration at 50 min,[4]; 0.3 mg/kg,~0.12 µM
same,concentration at 50 min,[4]; 1 mg/kg,~0.39 µM
same,concentration at 50 min,[4]; 3 mg/kg,~1.42 µM
same,concentration at 50 min,[4]; 10 mg/kg,~4.7 µM
same,concentration at 50 min,[4]; 30 mg/kg,~14.1 µM
